Experimental data taken from patent US12116388B2, “Amylin receptor agonists” (Novo Nordisk A/S, priority 2022, dated 2024).
Starred links: 1 amine or outer side, 2 acyl side, 3 side chain; linkers in the order of their positions; H or OH if unused. Residues, ends and D or L forms follow the SMILES beside them. Groups on a side chain read outwards from the residue. *: point of attachment. C18 diacid = O=C(O)CCCCCCCCCCCCCCCCC(=O)*; γGlu = O=C(O)[C@H](CCC(=O)[*:2])N[*:1]

target: T1, human calcitonin receptor (hCTR) (Homo sapiens, UniProt P30988); assay: Human calcitonin receptor (hCTR) in vitro potency assay, CRE-luciferase reporter in BHK cells; assay type: cell-based; conditions: BHK hCTR/CRE-Luc cells, 3 hours incubation, assay buffer with 1% ovalbumin; read-out: hCalcR potency, EC50
T1 construct: host or cells: BHK (Baby Hamster Kidney), Hollex-1 cell line
T1 sequence (P30988 25-474): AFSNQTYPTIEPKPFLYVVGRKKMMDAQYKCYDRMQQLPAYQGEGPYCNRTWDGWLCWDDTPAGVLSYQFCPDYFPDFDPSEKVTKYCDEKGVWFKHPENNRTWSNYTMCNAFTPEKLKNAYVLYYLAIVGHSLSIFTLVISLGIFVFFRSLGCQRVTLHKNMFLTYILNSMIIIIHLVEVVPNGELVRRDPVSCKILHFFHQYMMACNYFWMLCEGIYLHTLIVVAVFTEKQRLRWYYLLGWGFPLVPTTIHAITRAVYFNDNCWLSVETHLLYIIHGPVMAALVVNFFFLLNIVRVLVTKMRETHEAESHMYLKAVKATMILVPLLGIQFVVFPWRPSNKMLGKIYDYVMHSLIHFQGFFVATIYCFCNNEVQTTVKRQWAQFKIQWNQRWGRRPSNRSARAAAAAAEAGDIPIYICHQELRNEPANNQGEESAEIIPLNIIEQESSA
Outline: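 BHK cells stably co-expressing human calcitonin receptor and a CRE-luciferase reporter, seeded the day before, were exposed to 7-fold serial dilutions (7 concentrations, often starting near 10 nM) in DMEM/HEPES/1% ovalbumin buffer for 3 h at 37 °C. Luminescence was then read after SteadyLite Plus addition.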

Q: Which EC50 does the source give for CC[C@H](C)[C@H](NC(=O)[C@@H]1CCCN1C(=O)CNC(=O)[C@H](Cc1ccccc1)NC(=O)[C@H](CC(N)=O)NC(=O)[C@H](CC(=O)O)NC(=O)[C@H](CO)NC(=O)[C@H](CO)NC(=O)[C@H](Cc1c[nH]cn1)NC(=O)[C@H](Cc1c[nH]cn1)NC(=O)[C@H](CC(C)C)NC(=O)[C@H](Cc1ccccc1)NC(=O)[C@H](CCC(=O)O)NC(=O)[C@H](C)NC(=O)[C@H](CC(C)C)NC(=O)[C@H](CCCNC(=N)N)NC(=O)[C@H](C)NC(=O)[C@@H](NC(=O)[C@H](CCC(N)=O)NC(=O)[C@H](C)NC(=O)[C@@H](NC(=O)[C@H](CO)NC(=O)[C@H](CC(C)C)NC(=O)[C@H](CCC(N)=O)NC(=O)[C@H](CO)NC(=O)[C@H](C)NC(=O)CC[C@H](NC(=O)CCCCCCCCCCCCCCCCC(=O)O)C(=O)O)[C@@H](C)O)[C@@H](C)O)C(=O)N[C@@H](CC(C)C)C(=O)N1CCC[C@H]1C(=O)N1CCC[C@H]1C(=O)N[C@H](C(=O)N[C@@H](CC(=O)O)C(=O)N[C@H](C(=O)NCC(=O)N[C@@H](CO)C(=O)N[C@@H](CC(N)=O)C(=O)N[C@H](C(=O)N1CCC[C@H]1C(N)=O)[C@@H](C)O)C(C)C)[C@@H](C)O [Compound 22, N^1-[(4S)-4-carboxy-4-(17-carboxyheptadecanoylamino)butanoyl]-[Ala1,Ser2,Gln3,Leu4,Ser5,Ala7,Gln8,Ala10,Glu14,His17,Asp21,Pro25,Pro28,Pro29,Asp31,Pro37]-human amylin] ({C18 diacid-γGlu}-ASQLSTAQTARLAEFLHHSSDNFGPILPPTDVGSNTP-NH2) here?
A: Its EC50 is 1.86 pM.

Q: With CC[C@H](C)[C@H](NC(=O)[C@H](C)NC(=O)CNC(=O)[C@H](Cc1ccccc1)NC(=O)[C@@H]1CCCN1C(=O)[C@H](CC(=O)O)NC(=O)[C@H](CO)NC(=O)[C@H](CO)NC(=O)[C@H](Cc1c[nH]cn1)NC(=O)[C@H](Cc1c[nH]cn1)NC(=O)[C@H](CC(C)C)NC(=O)[C@H](Cc1ccccc1)NC(=O)[C@H](CCC(=O)O)NC(=O)[C@H](C)NC(=O)[C@H](CC(C)C)NC(=O)[C@H](CCCNC(=N)N)NC(=O)[C@H](CCC(N)=O)NC(=O)[C@@H](NC(=O)[C@H](CCC(N)=O)NC(=O)[C@H](C)NC(=O)[C@@H](NC(=O)[C@H](CO)NC(=O)[C@H](CC(C)C)NC(=O)[C@H](CCC(N)=O)NC(=O)[C@H](CO)NC(=O)[C@H](C)NC(=O)CC[C@H](NC(=O)CCCCCCCCCCCCCCCCC(=O)O)C(=O)O)[C@@H](C)O)[C@@H](C)O)C(=O)N1CCC[C@H]1C(=O)N[C@@H](CO)C(=O)N[C@@H](CO)C(=O)N[C@H](C(=O)N[C@@H](CC(=O)O)C(=O)N[C@H](C(=O)NCC(=O)N1CCC[C@H]1C(=O)N[C@@H](CC(=O)O)C(=O)N[C@H](C(=O)N1CCC[C@H]1C(N)=O)[C@@H](C)O)C(C)C)[C@@H](C)O [Compound 24] ({C18 diacid-γGlu}-ASQLSTAQTQRLAEFLHHSSDPFGAIPSSTDVGPDTP-NH2) as the compound, how does the EC50 read?
A: Its EC50 is 1.56 pM.

Q: Which EC50 does the source give for CC[C@H](C)[C@H](NC(=O)[C@H](C)NC(=O)CNC(=O)[C@H](Cc1ccccc1)NC(=O)[C@@H]1CCCN1C(=O)[C@H](CC(=O)O)NC(=O)[C@H](CO)NC(=O)[C@H](CO)NC(=O)[C@H](Cc1c[nH]cn1)NC(=O)[C@H](Cc1c[nH]cn1)NC(=O)[C@H](CC(C)C)NC(=O)[C@H](Cc1ccccc1)NC(=O)[C@H](CCC(=O)O)NC(=O)[C@H](C)NC(=O)[C@H](CC(C)C)NC(=O)[C@H](CCCNC(=N)N)NC(=O)[C@H](C)NC(=O)[C@@H](NC(=O)[C@H](CCC(N)=O)NC(=O)[C@H](C)NC(=O)[C@@H](NC(=O)[C@H](CO)NC(=O)[C@H](CC(C)C)NC(=O)[C@H](Cc1c[nH]cn1)NC(=O)[C@H](CO)NC(=O)[C@H](C)NC(=O)CC[C@H](NC(=O)CCCCCCCCCCCCCCCCC(=O)O)C(=O)O)[C@@H](C)O)[C@@H](C)O)C(=O)N1CCC[C@H]1C(=O)N[C@@H](CO)C(=O)N[C@@H](CO)C(=O)N[C@H](C(=O)N[C@@H](CC(=O)O)C(=O)N[C@H](C(=O)NCC(=O)N1CCC[C@H]1C(=O)N[C@@H](CC(=O)O)C(=O)N[C@H](C(=O)N1CCC[C@H]1C(N)=O)[C@@H](C)O)C(C)C)[C@@H](C)O [Compound 25, N^1-[(4S)-4-carboxy-4-(17-carboxyheptadecanoylamino)butanoyl]-[Ala1,Ser2,His3,Leu4,Ser5,Ala7,Gln8,Ala10,Glu14,His17,Asp21,Pro22,Pro27,Asp31,Pro34,Asp35,Pro37]-human amylin] ({C18 diacid-γGlu}-ASHLSTAQTARLAEFLHHSSDPFGAIPSSTDVGPDTP-NH2) here?
A: The EC50 was 1.5 pM.

Q: With CC[C@H](C)[C@H](NC(=O)[C@H](CCCCNC(=O)CC[C@H](NC(=O)CCCCCCCCCCCCCCCCC(=O)O)C(=O)O)NC(=O)CNC(=O)[C@H](Cc1ccccc1)NC(=O)[C@H](CC(N)=O)NC(=O)[C@H](CC(=O)O)NC(=O)[C@H](CO)NC(=O)[C@H](CO)NC(=O)[C@H](Cc1c[nH]cn1)NC(=O)[C@H](Cc1c[nH]cn1)NC(=O)[C@H](CC(C)C)NC(=O)[C@H](Cc1ccccc1)NC(=O)[C@H](CCC(=O)O)NC(=O)[C@H](C)NC(=O)[C@H](CC(C)C)NC(=O)[C@H](CCCNC(=N)N)NC(=O)[C@H](C)NC(=O)[C@@H](NC(=O)[C@H](CCC(N)=O)NC(=O)[C@H](C)NC(=O)[C@@H](NC(=O)[C@H](CO)NC(=O)[C@H](CC(C)C)NC(=O)[C@H](Cc1c[nH]cn1)NC(=O)[C@H](CO)NC(=O)[C@H](C)NC(C)=O)[C@@H](C)O)[C@@H](C)O)C(=O)N[C@@H](CC(C)C)C(=O)N1CCC[C@H]1C(=O)N1CCC[C@H]1C(=O)N[C@H](C(=O)N[C@@H](CC(=O)O)C(=O)N[C@H](C(=O)NCC(=O)N[C@@H](CO)C(=O)N[C@@H](CC(N)=O)C(=O)N[C@H](C(=O)N1CCC[C@H]1C(N)=O)[C@@H](C)O)C(C)C)[C@@H](C)O [Compound 41, N^1-acetyl,N{Epsilon-25}-[(4S)-4-carboxy-4-(17-carboxyheptadecanoylamino)butanoyl]-[Ala1,Ser2,His3,Leu4,Ser5,Ala7,Gln8,Ala10,Glu14,His17,Asp21,Lys25,Pro28,Pro29,Asp31,Pro37]-human amylin] (Ac-ASHLSTAQTARLAEFLHHSSDNFGK([γGlu-C18 diacid])ILPPTDVGSNTP-NH2) as the compound, how does the EC50 read?
A: The EC50 was 1.16 pM.
